Assay [1] is described as follows: Effectiveness testing of AII fragments (test not specified). The settings on record: test not described.
A further assay relates to AT2 receptor. The settings on record: cited from earlier work.
In assay [2] the test system is cultured cells that are involved in wound repair. The settings on record: cited from earlier work.
For assay [3], the system named is Female C57B1/6 mice. The assay is described as follows: Blood cell recovery after irradiation (white blood cells, megakaryocytes, monocytes, neutrophils, lymphocytes). The class given is in vivo. How it is done: (§1) Female C57B1/6 mice (Jackson Labs, Bar Harbor, Me.) were irradiated with 600 cGy total body irradiation. Subcutaneous injection with either AII (10 μg/kg/day or 100 μg/kg/day) or saline (placebo) was initiated two days before (−day 2), on the day of (day 0) or 2 days after (+day 2) irradiation and continued until the animals succumbed to the irradiation or were necropsied. At various times after irradiation, the mice were anaesthetized with Metofane (Pittman-Moore Animal Health, NZ) and bled via the retro-orbital sinus. Red blood cells were lysed with 0.3% acetic acid and the number of white blood cells was determined by counting with a hemacytometer. […] Furthermore, AII administration at all time periods tested increased the number of circulating white blood cells (FIGS. 4-6).

The test system of the next assay is C57B1/6 mice. The assay is described as follows: Survival and white blood cell number of mice receiving bone marrow transplantation after lethal irradiation. The format is in vivo. How it is done:
Donor C57B1/6 mice (female, 6-8 weeks old) were irradiated with 600 cGy total body irradiation. Starting on the day of irradiation, the mice received either saline (0.1 ml) or 20 μg/ml angiotensin II (0.1 ml, 100 μg/kg) subcutaneously for fourteen days. At the end of this period, the bone marrow was harvested from the femur by flushing and the number of viable nucleated cells determined by counting under a light microscope on a hemacytometer in the presence of trypan blue.
These donor bone marrow cells were then injected intravenously into recipient mice (female C57B1/6, 6-8 weeks old) that had been lethally irradiated (900 cGy total body irradiation) at two concentrations: 1×10^6 or 1×10^5 cells per mouse. After injection, the recipient mice received either saline or 100 μg/kg AII subcutaneously until death or termination. The study design in its entirety is as follows:
The survival of the mice and the number of circulating white blood cells were measured as a function of time post-bone marrow transplantation.

The test system of assay [4] is chick chorioallantoic membrane. The settings on record: chick chorioallantoic membrane model; cited from earlier work.
The next assay has as its system wound tissue. The settings on record: application to wound tissue; cited from earlier work.
Assay [5] relates to Female C57B1/6 mice. The assay is described as follows: Post-irradiation mouse mortality/survival (600 cGy total body irradiation). The format is in vivo. How it is done:
as §1

Another assay concerns rabbit corneal eye. The settings on record: rabbit corneal eye model; cited from earlier work.
The mark [6] stands for this setting: recipients 900 cGy, AII 100 μg/kg s.c. to donor and/or recipient.

Entries after “also recorded” stand apart in the source; their conditions may differ. Non-standard residues stand in square brackets, D forms with d. No end group written: not given here. Phe(4-NH2) = Nc1ccc(C[C@H](N)C(=O)O)cc1

These results are taken from patent publication US7776828B2, “Radiation therapy methods” (University of Southern California, priority 1998, dated 2010).

His-Pro-Phe (HPF) [AII(6-8)]: the effectiveness result in assay [1] was “not to be effective”.

In the case of Tyr-Ile-His-Pro-Phe (YIHPF) [AII(4-8)], the effectiveness entry in [1] is on record as “not to be effective; also recorded: ineffective”.

For “Asp-Arg-Val-Tyr-Ile-Xaa-Pro-Phe (DRVYI[Phe(4-NH2)]PF) [p-aminophenylalanine6-AII, reference compound]”, in the assay on AT2 receptor (compared with AT2 antagonists in the experimental models tested), the binding characteristics result is given as “comparable to AT2 antagonists”.

As for “Asp-Arg-Val-Tyr-Ile-His-Pro-Phe (DRVYIHPF) [AII]”, in assay [2], the mitogenesis and chemotaxis entry is on record as “increases”; the “release of growth factors and extracellular matrices” value was “increases”. For the same substance, in the assay on AT2 receptor (selectivity AT2 over AT1), the “affinity for AT2 than AT1” value is 100 times. The number of megakaryocytes result in the assay with Female C57B1/6 mice [3] (after 600 cGy irradiation, FIGS. 7-9) was “increased”. Moreover, in the assay on Female C57B1/6 mice [3] (after 600 cGy irradiation, FIGS. 10-12), the number of monocytes entry is recorded as “increased”. Further, the number of neutrophils entry with Female C57B1/6 mice [3] (after 600 cGy irradiation, FIGS. 13-15) was “increased”. Also, the number of lymphocytes result in the assay with Female C57B1/6 mice [3] (after 600 cGy irradiation, FIGS. 16-18) is listed as “increased”. Moreover, the “number of circulating white blood cells” value in the assay with Female C57B1/6 mice [3] (all time periods tested (-day 2, day 0, +day 2), 600 cGy, FIGS. 4-6) is reported as “increased”. Moreover, in the assay on C57B1/6 mice (setting [6]), the “number of circulating white blood cells post-bone marrow transplantation” value was “increased” and the “survival post-bone marrow transplantation” value is listed as “increased”. Besides, the “benefit (survival and white blood cell number)” value with C57B1/6 mice (treatment of both the donor bone marrow cells and the recipient mice with AII) is recorded as “greatest benefit”. For the same substance, the angiogenic activity result in assay [4] is listed as “angiogenic”. Also, in the assay on wound tissue, the “rate of wound healing” value is reported as “significantly increases”. For the same substance, the survival after irradiation entry with Female C57B1/6 mice [5] (AII 10 or 100 μg/kg/day s.c. starting on the day of irradiation (day 0), FIG. 2) is given as “substantially increased survival”. Besides, in the assay on Female C57B1/6 mice [5] (AII 10 or 100 μg/kg/day s.c. starting two days after irradiation (+day 2), FIG. 3), the survival after irradiation entry is recorded as “substantially increased survival”. Further, the “protection against mortality resulting from irradiation” value in the assay on Female C57B1/6 mice [5] (AII 10 or 100 μg/kg/day s.c. starting two days prior to irradiation (-day 2), FIG. 1) is “did not protect against mortality”. The angiogenic activity result in the assay with rabbit corneal eye is recorded as “angiogenic”.
